Here are results for 20 molecules from patent US9681664B2, “Macrocyclic picolinamides as fungicides” (Dow Agrosciences LLC, priority 2012, dated 2017).

The subject of data set [1] is Puccinia triticina; Synonym: Puccinia recondite f. sp. tritici. Put plainly: Wheat brown rust (PUCCRT) disease control on wheat seedlings. The data set is classed as in vivo. As to conditions: Puccinia triticina, High volume application, 100 ppm. The method in brief: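 Yuma wheat grown to first fully emerged leaf was inoculated with Puccinia triticina spore suspension either before or after fungicide treatment, held overnight at 22° C. and 100% RH in darkness, then kept at 24° C. Fungicide applied by booth sprayer to run-off (acetone/water, 110 ppm Triton X-100) or as EC by track spray.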

Data set [2] has as its system Mycosphaerella graminicola; Anamorph: Septoria tritici. Put plainly: Leaf blotch of wheat (SEPTTR) disease control on wheat seedlings. The note with it: Zymoseptoria tritici, High volume application, 100 ppm. In kind it is in vivo. The method in brief:
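Protective or curative format: Septoria tritici inoculation either preceded or followed fungicide application to first-leaf Yuma wheat. Severity scored 0–100%; control expressed versus untreated.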

The subject of data set [3] is Phakopsora pachyrhizi. Put plainly: Asian soybean rust (PHAKPA) disease control. In kind it is in vivo. The note with it: topical, high volume. Here is the method: Technical grades of materials were dissolved in acetone, which were then mixed with nine volumes of water containing 0.011% Tween 20. The fungicide solutions were applied onto soybean seedlings using an automated booth sprayer to run-off. All sprayed plants were allowed to air dry prior to further handling.
Soybean plants (variety Williams 82) were grown in soil-less Metro mix, with one plant per pot. Two weeks old seedlings were used for testing. Plants were inoculated either 3 days prior to or 1 day after fungicide treatments. Plants were incubated for 24 h in a dark dew room at 22° C. and 100% RH then transferred to a growth room at 23° C. for disease to develop. Disease severity was assessed on the sprayed leaves.

For data set [4], the system named is Glomerella lagenarium; Anamorph: Colletotrichum lagenarium. Put plainly: Cucumber anthracnose (COLLLA) disease control. In kind it is in vivo. The note with it: Colletotrichum orbiculare, 24 h, 1 Day Protectant, high volume, read-out: Disease Control COLLLA 1 DP. Here is the method:
Technical grades of materials were dissolved in acetone, which were then mixed with nine volumes of water containing 110 ppm Triton X-100. The fungicide solutions were applied onto wheat seedlings using an automated booth sprayer to run-off. All sprayed plants were allowed to air dry prior to further handling. All fungicides were evaluated using the aforementioned method for their activity vs. all target diseases. Wheat leaf blotch and brown rust activity were also evaluated using track spray applications, in which case the fungicides were formulated as EC formulations, containing 0.1% Trycol 5941 in the spray solutions. Cucumber seedlings (variety Bush Pickle) were propagated in soil-less Metro mix, with each pot having one plant, and used in the test when 12 to 14 days old. Test plants were inoculated with an aqueous spore suspension of Colletotrichum lagenarium 24 hr after fungicide treatments. After inoculation the plants were kept in a dew room at 22° C. with 100% relative humidity for 48 hr to permit spores to germinate and infect the leaf. The plants were then transferred to a growth room set at 22° C. for disease to develop. Fungicide formulation, application and disease assessment on the sprayed leaves followed the procedures as described in the Example A.

Setting [5] is: 24 h, 1 Day Protectant, read-out: PUCCRT 1DP disease control.
Setting [6] is: 72 h, 3 Day Curative, read-out: PUCCRT 3DC disease control.
The mark [7] stands for this setting: 24 h, 1 Day Protectant, read-out: SEPTTR 1DP disease control.
Setting [8] is: 72 h, 3 Day Curative, read-out: SEPTTR 3DC disease control.
Setting [9] is: 24 h, 1 Day Protectant, read-out: Disease Control PHAKPA 1DP.
[10] abbreviates: 72 h, 3 Day Curative, read-out: Disease Control PHAKPA 3DC.

Each structure is given as a SMILES string. Read-outs that look alike come from different tables or passages of the source.

The molecule `CC(C)CO[C@H]1CCC[C@H](N)C(=O)O[C@@H](C)[C@@H]1OC(=O)C1CC1.Cl` registered a melting point of 231 to 235 °C.
The same measure, in the same setting: as for `CCCO[C@H]1[C@H](C)OC(=O)[C@@H](N)CCC[C@@H]1OCC(C)C.Cl`, the figure is 226 to 229 °C.
With `CC(C)CO[C@H]1CCC[C@H](N)C(=O)O[C@@H](C)[C@@H]1OC/C=C/C(F)(F)F.Cl`, the melting point is 236 to 240 °C.
Molecule `COc1ccc(O[C@H]2CCC[C@H](N)C(=O)O[C@@H](C)[C@@H]2OCC(C)C)cc1.Cl` had a melting point of 198 to 200 °C.
On the same count and under the same terms, the result for `C[C@@H]1OC(=O)[C@@H](N)CCC[C@H](OC2CCCC2)[C@H]1OC1CCCC1.Cl` reads 246 to 248 °C; that for `CC(C)CO[C@H]1[C@H](C)OC(=O)[C@@H](N)CCC[C@@H]1OCC(C)C.Cl`, 188 to 230 °C.
`COc1ccnc(C(=O)N[C@H]2CCC[C@H](OCC(C)C)[C@@H](OCC(C)C)[C@H](C)OC2=O)c1O` [F21] came in with a melting point of 94 to 95 °C. Moreover, the pest or weed control at 100 ppm in data set [1] (setting [5]) lay in the range of 80 to 100%. Also, in data set [1] (setting [6]), the pest or weed control at 100 ppm was 80 to 100%. In data set [2] (setting [7]), the pest or weed control at 100 ppm is 0 to 80%. Also, the pest or weed control at 100 ppm in data set [2] (setting [8]) is 0 to 80%.
As for `COc1ccnc(C(=O)N[C@H]2CCC[C@H](OCC(C)C)[C@@H](OCCCC(F)(F)F)[C@H](C)OC2=O)c1O` [F41], the melting point was 108 to 114 °C. For the same molecule, in data set [1] (setting [5]), the pest or weed control at 100 ppm lay within 80 to 100%. The pest or weed control at 100 ppm in data set [1] (setting [6]) fell in the range of 80 to 100%. Also, the pest or weed control at 100 ppm in data set [2] (setting [7]) lay within 0 to 80%. In addition, the pest or weed control at 100 ppm in data set [2] (setting [8]) was 80 to 100%.
`COc1ccnc(C(=O)N[C@H]2CCC[C@H](Oc3ccc(F)cc3)[C@@H](Oc3ccc(F)cc3)[C@H](C)OC2=O)c1O` [F50] had a melting point of 89 to 91 °C. In addition, the pest or weed control at 100 ppm in data set [1] (setting [5]) fell in the range of 80 to 100%. In data set [1] (setting [6]), the pest or weed control at 100 ppm fell in the range of 80 to 100%. In data set [2] (setting [7]), the pest or weed control at 100 ppm lay in the range of 80 to 100%. In addition, the pest or weed control at 100 ppm in data set [2] (setting [8]) fell in the range of 0 to 80%.
For the molecule `COc1ccnc(C(=O)N[C@H]2CCC[C@H](OCC(C)C)[C@@H](Oc3ccc(F)cc3)[C@H](C)OC2=O)c1O` [F55], the melting point lay in the range of 65 to 67 °C. Besides, the pest or weed control at 100 ppm in data set [1] (setting [5]) lay in the range of 80 to 100%. Besides, the pest or weed control at 100 ppm in data set [1] (setting [6]) is 80 to 100%. Besides, the pest or weed control at 100 ppm in data set [2] (setting [7]) was in the range of 80 to 100%. The pest or weed control at 100 ppm in data set [2] (setting [8]) lay within 80 to 100%.
The molecule `COc1ccnc(C(=O)N[C@H]2CCC[C@H](Oc3ccc(F)cc3)[C@@H](OCC(C)C)[C@H](C)OC2=O)c1OCOC(C)=O` [F63] registered a melting point of 139 to 141 °C. The pest or weed control at 100 ppm in data set [1] (setting [5]) fell in the range of 80 to 100%. Also, the pest or weed control at 100 ppm in data set [1] (setting [6]) fell in the range of 80 to 100%. In data set [2] (setting [7]), the pest or weed control at 100 ppm was 80 to 100%. For the same molecule, in data set [2] (setting [8]), the pest or weed control at 100 ppm lay within 80 to 100%.
As for `COc1ccc(O[C@H]2CCC[C@H](NC(=O)c3nccc(OC)c3OCOC(C)=O)C(=O)O[C@@H](C)[C@@H]2OCC(C)C)cc1` [F68], the melting point was 118 to 120 °C. Besides, the pest or weed control at 100 ppm in data set [1] (setting [5]) fell in the range of 80 to 100%. Further, the pest or weed control at 100 ppm in data set [1] (setting [6]) lay in the range of 80 to 100%. For the same molecule, in data set [3] (setting [9]), the pest or weed control at 25 ppm lay in the range of 80 to 100%. Further, the pest or weed control at 100 ppm in data set [2] (setting [7]) lay within 80 to 100%. Further, the pest or weed control at 100 ppm in data set [2] (setting [8]) was in the range of 80 to 100%.
In turn, `COc1ccnc(C(=O)N[C@H]2CCC[C@H](OC3CCCC3)[C@@H](OC3CCCC3)[C@H](C)OC2=O)c1O` [F73] gave a melting point of 61 to 63 °C. For the same molecule, in data set [1] (setting [5]), the pest or weed control at 100 ppm fell in the range of 80 to 100%. Also, in data set [1] (setting [6]), the pest or weed control at 100 ppm was in the range of 80 to 100%. The pest or weed control at 100 ppm in data set [2] (setting [7]) fell in the range of 0 to 80%. The pest or weed control at 100 ppm in data set [2] (setting [8]) was 80 to 100%.
As to `COc1ccnc(C(=O)N[C@H]2CCC[C@H](OC3CCCC3)[C@@H](Oc3ccccc3)[C@H](C)OC2=O)c1OCOC(C)=O` [F78], the pest or weed control at 100 ppm in data set [1] (setting [5]), in data set [1] (setting [6]), in data set [4], in data set [2] (setting [7]) and in data set [2] (setting [8]) was 80 to 100% throughout. Besides, the pest or weed control at 25 ppm in data set [3] (setting [9]) and in data set [3] (setting [10]) was 80 to 100% throughout.
`COc1ccnc(C(=O)N[C@H]2CCC[C@H](Oc3ccccc3)[C@@H](OC3CCCC3)[C@H](C)OC2=O)c1OCOC(C)=O` [F80] yielded a melting point of 148 to 149 °C. Moreover, the pest or weed control at 100 ppm in data set [1] (setting [5]) was 80 to 100%. Moreover, the pest or weed control at 100 ppm in data set [1] (setting [6]) was in the range of 80 to 100%. Besides, the pest or weed control at 25 ppm in data set [3] (setting [9]) is 80 to 100%. Also, the pest or weed control at 25 ppm in data set [3] (setting [10]) is 80 to 100%. Also, the pest or weed control at 100 ppm in data set [2] (setting [7]) was 80 to 100%. In data set [2] (setting [8]), the pest or weed control at 100 ppm fell in the range of 80 to 100%.
The molecule `COc1ccnc(C(=O)N[C@H]2CCC[C@H](OC3CCCC3)[C@@H](OCC(C)C)[C@H](C)OC2=O)c1O` [F119] yielded a melting point of 99 to 100 °C. The pest or weed control at 100 ppm in data set [1] (setting [5]) was in the range of 80 to 100%. Further, the pest or weed control at 100 ppm in data set [1] (setting [6]) fell in the range of 80 to 100%. For the same molecule, in data set [2] (setting [7]), the pest or weed control at 100 ppm lay within 80 to 100%. The pest or weed control at 100 ppm in data set [2] (setting [8]) fell in the range of 80 to 100%.
For `COc1ccnc(C(=O)N[C@H]2CCC[C@H](OC3CCCC3)[C@@H](OCCCC(F)(F)F)[C@H](C)OC2=O)c1O` [F120], the melting point is 43 to 48 °C. Further, the pest or weed control at 100 ppm in data set [1] (setting [5]) fell in the range of 80 to 100%. In addition, in data set [1] (setting [6]), the pest or weed control at 100 ppm lay within 80 to 100%. For the same molecule, the pest or weed control at 100 ppm in data set [2] (setting [7]) fell in the range of 80 to 100%. In addition, the pest or weed control at 100 ppm in data set [2] (setting [8]) lay in the range of 80 to 100%.
Regarding `CCCO[C@H]1[C@H](C)OC(=O)[C@@H](NC(=O)c2nccc(OC)c2O)CCC[C@@H]1OCC(C)C` [F212], the melting point lay within 109 to 111 °C. In data set [1] (setting [5]), the pest or weed control at 100 ppm fell in the range of 80 to 100%. Moreover, the pest or weed control at 100 ppm in data set [1] (setting [6]) lay in the range of 80 to 100%. In addition, in data set [2] (setting [7]), the pest or weed control at 100 ppm fell in the range of 0 to 80%. In data set [2] (setting [8]), the pest or weed control at 100 ppm lay in the range of 0 to 80%.
`COc1ccnc(C(=O)N[C@H]2CCC[C@H](OCC(C)C)[C@@H](OC(=O)C3CC3)[C@H](C)OC2=O)c1O` [F213] showed a melting point of 63 to 66 °C. Moreover, the pest or weed control at 100 ppm in data set [1] (setting [5]) was in the range of 80 to 100%. In addition, in data set [1] (setting [6]), the pest or weed control at 100 ppm fell in the range of 80 to 100%. Further, the pest or weed control at 100 ppm in data set [2] (setting [7]) lay within 0 to 80%. In addition, the pest or weed control at 100 ppm in data set [2] (setting [8]) was in the range of 0 to 80%.
For the molecule `COc1ccnc(C(=O)N[C@H]2CCC[C@H](OC3CCCC3)[C@@H](OC3CCCC3)[C@H](C)OC2=O)c1OCOC(C)=O` [F217], the pest or weed control at 100 ppm in data set [1] (setting [5]), in data set [1] (setting [6]), in data set [4], in data set [2] (setting [7]) and in data set [2] (setting [8]) was 80 to 100% throughout. Moreover, the pest or weed control at 25 ppm in data set [3] (setting [9]) fell in the range of 80 to 100%.
